Legend:
Format in all cases: cell-based
MCF7 cells [1] = experiment: Transfection of MCF7 cell line, mRNA vectors; settings: 50 ng EGFP mRNA per well
Experimental: (§1) Cell line: MCF7 cells (ATCC HTB-22)
Medium: DMEM supplemented with 10 fetal bovine serum (Invitrogen)
(§2) Screening: cell transfection on 96-well plates
Detection (readout): percentage of the number of GFP fluorescent cells relative to the total number of cells (the total number of cells was determined using nucleus dye Hoechst). Lipofectamine2000 (Invitrogen) was used as the positive control.
Method: the experimental method was basically the same with Example 4, and the mass of EGFP mRNA (TriLink) for transfection was 50 ng per well.

MCF7 cells [2] = experiment: Transfection of MCF7 cell line, DNA vectors; parameters: concentration or dose not given beside the values; settings: plasmid DNA, GFP cells / total cells
Experimental: as §1
Medium DMEM supplemented with […] fetal bovine serum
as §2
Detection (readout): percentage of the number of GFP fluorescent cells relative to the total number of cells (the total number of cells was determined using nucleus dye Hoechst). Lipofectamine2000 was used as the positive control, according to the manufacturer's instructions.
(§3) Method: the experimental method was basically the same with Example 4.

cardiomyocytes [3] = experiment: Screening as DNA vectors in cardiomyocytes; parameters: concentration or dose not given beside the values; settings: method as Example 4
Experimental: Cell line: cardiomyocytes (obtained from induced differentiation of hESC according to reported methods: J. Mol. Cell. Cardiol. 2011, 51, 288-298)
(§4) Medium: DMEM supplemented with 10% fetal bovine serum (Invitrogen)
(§5) Mode of screening: cell transfection on 96-well plates
(§6) Detection (readout): percentage of the number of GFP fluorescent cells relative to the total number of cells (the total number of cells was determined using nucleus dye Hoechst). Lipofectamine Stem (Invitrogen) was used as the positive control, according to the manufacturer's instructions.
as §3

Hela cells [4] = experiment: Transfection of Hela cell line, mRNA vectors; settings: 50 ng EGFP mRNA per well
Outline: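 Transfection efficiency was scored as GFP-fluorescent cells over Hoechst-stained total nuclei, with Lipofectamine2000 as reference reagent. Each well of HeLa cells, grown in DMEM plus 10% FBS, received 50 ng EGFP mRNA.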

[5] = system: embryonic stem cells (hESC2); experiment: Screening as DNA vectors in embryonic stem cells, flow cytometry; settings: 75 ng plasmid DNA, 48 hours after transfection, flow cytometer
Description: (§7) Cell line: embryonic stem cells (hESC2, cultured according to reported methods: Stem Cells, 2005, 23, 544-549)
(§8) Medium: mTeSR1 (STEMCELL)
as §5
(§9) Detection (readout): percentage of the number of GFP fluorescent cells relative to the total number of cells. Lipofectamine Stem was used as the positive control.
Method: an 8-channel pipette was used for sample addition. The contents shown were for a single well of a 96-well flat plate.
1. Stem cells were cultured to 3-5×10^4 cells per well in a 96-well plate treated with matrigel.
2. The compound (0.01 mmol) prepared in Example 1 was dissolved in 1 mL of anhydrous ethanol. After ultrasonically dissolved, 10 μL of the resultant amino lipid solution in ethanol was taken and mixed with 5 μL of DOPE solution in ethanol ([…]). The obtained mixture was then added with 35 μL of 0.2 M sodium acetate buffer (pH 5.6), and vortexed at a constant rotating speed for 30 s. Then, 4 μL was taken from the obtained product and added to 46 μL of 0.02 M sodium acetate buffer (pH 5.6), and vortexed at a constant rotating speed for 30 s to form a liposome solution. 5 μL of this liposome solution was mixed with 75 ng of plasmid DNA (pSin-EGFP-IRES-Puro) dissolved in 5 μL of 0.02 M sodium acetate buffer, and allowed to stay at room temperature for 30 min to form a lipid/DNA transfection complex.
3. 10 μL of the lipid/DNA transfection complex was incubated at room temperature for 30 min, followed by addition of 90 μL mTeSR1 medium was added and mixing with a pipette. 100 μL of the mixture was added to separate wells of a 96-well culture plate and placed in an incubator containing 5% CO2 at 37° C.
4. 48 hours after transfection, the cells were digested with 0.05% Trypsin-EDTA. The cells were resuspended in a PBS buffer and filtered. The cell suspension was placed in a flow cytometer and the number of GFP-expressing cells in no less than 2000 cells was measured so as to obtain the absolute efficiency of cell transfection. The relative efficiency of cell transfection was obtained by comparing the cell transfection efficiency with the positive control Lipofectamine Stem.

[6] = system: embryonic stem cells (hESC2); experiment: Screening as mRNA vectors in embryonic stem cells; settings: 50 ng EGFP mRNA per well
Experimental: as §7, §8
Mode of screening: cell transfection on 96-well plate
as §9
Method: the experimental method was basically the same with Example 10, and the mass of EGFP mRNA for transfection was 50 ng per well.

cardiomyocytes [7] = experiment: Screening as mRNA vectors in cardiomyocytes; settings: 50 ng EGFP mRNA per well
Experimental: Cell line: cardiomyocytes (obtained from induced differentiation of hESC according to reported methods: J Mol. Cell. Cardiol. 2011, 51, 288-298)
as §4, §5, §6
Method: the experimental method was basically the same with Example 4, and the mass of EGFP mRNA for transfection was 50 ng per well.

Hela cells [8] = experiment: Transfection of Hela cell line, DNA vectors; settings: 75 ng plasmid DNA, GFP cells / total cells
Outline: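 Amino lipid/DOPE liposomes in sodium acetate pH 5.6 were complexed with 75 ng psin-EGFP-IRES-Puro plasmid for 30 min at room temperature, then mixed with 3-5×10^4 Hela cells in DMEM/10% FBS at 37° C. Hoechst stain after 20-24 h, imaging after a further 20-24 h. Efficiency = GFP-positive cells / total nuclei.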

HEK293 cells [9] = experiment: Preliminary screening as DNA vectors, GFP transfection of HEK293 cells; settings: HEK293 cells; lipid/DOPE liposome with 75 ng plasmid DNA (psin-EGFP-IRES-Puro); number of cells expressing GFP divided by total number of nuclei (Hoechst)
Outline: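 HEK293 cells in DMEM/10% FBS transfected with 75 ng EGFP plasmid per well complexed with amino lipid/DOPE liposomes in pH 5.6 sodium acetate. Hoechst nuclear stain added 20-24 h post-transfection, then cells cultured another 20-24 h. Confocal imaging gives GFP-positive cells as % of total nuclei.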

HEK293 cells [10] = experiment: Preliminary screening as mRNA vectors, EGFP mRNA transfection of HEK293 cells; settings: HEK293 cells, 96-well plates, EGFP mRNA 50 ng per well; percentage of GFP fluorescent cells relative to total number of cells (Hoechst)
Outline: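 HEK293 cells in DMEM plus 10% FBS transfected in 96-well format with 50 ng EGFP mRNA per well; Lipofectamine2000 served as positive control. Read-out is the percentage of GFP-fluorescent cells among total cells, counted by Hoechst nuclear stain.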

SMILES	Absolute mRNA transfection efficiency in MCF7 cells (MCF7 cells [1]) [%]	Absolute DNA transfection efficiency in MCF7 cells (MCF7 cells [2]) [%]	Absolute DNA transfection efficiency in cardiomyocytes (cardiomyocytes [3]) [%]	Absolute mRNA transfection efficiency in Hela cells (Hela cells [4]) [%]	Absolute DNA transfection efficiency in embryonic stem cells [5] [%]	Absolute mRNA transfection efficiency in embryonic stem cells [6] [%]	Absolute mRNA transfection efficiency in cardiomyocytes (cardiomyocytes [7]) [%]	Absolute DNA transfection efficiency in Hela cells (Hela cells [8]) [%]	Absolute DNA transfection efficiency in HEK293 cells (HEK293 cells [9]) [%]	Absolute mRNA transfection efficiency in HEK293 cells (HEK293 cells [10]) [%]
CCCCCCCCCCCSc1nc(NCCCCCCCCC)nc(NCCN2CCCC2)n1 [Compound S11N9D3]	26.6	13.6	0.3	11.5	3.7	22.0	8.3	11.5		
CCCCCCCCCCCSc1nc(NCC2CCN(C)CC2)nc(SCCCCCCCC)n1 [Compound S8S11D10]	40.4	37.2	1.4	21.8	0.7	37.4	20.8	21.8		
CCCCCCCCCCCSc1nc(NCCCCCCCC)nc(NCCN2CCN(C)CC2)n1 [Compound S11N8D5]	21.2	20.1	9.1	9.6	4.0	6.9	32.2	9.6		
CCCCCCCCCCCSc1nc(NCCCCCCCC)nc(NCCCN2CCOCC2)n1 [Compound S11N8D8]	7.8	0.1	1.2	6.1	0.0	1.3	0.9	6.1		
CCCCCCCCCCCSc1nc(NCCCCCCCCC)nc(NCCCN2CCOCC2)n1 [Compound S11N9D8]	13.1	0.9	1.7	4.3	0.8	3.2	2.6	4.3		
CCCCCCCCCCCCCCCCSc1nc(NCCCN(C)C)nc(SCCCCCCCCC)n1 [Compound S9S16D6]	34.2	39.7		27.8				27.8	55.4	71.5
CCCCCCCCCCCCCCCCSc1nc(NCC2CCN(C)CC2)nc(SCCCCCCCCC)n1 [Compound S9S16D10]	46.0	36.9		28.6				28.6	56.9	66.4
CCCCCCCCCCCCCCCCSc1nc(NCCCN2CCN(C)CC2)nc(SCCCCCCCCC)n1 [Compound S9S16D9]	33.8	23.0		6.9				6.9	13.9	41.4
CCCCCCCCCCCCCCCCSc1nc(NCCN2CCCC2)nc(SCCCCCCCCC)n1 [Compound S9S16D3]	3.0	14.1		0.0				0.0	0.0	25.3
CCCCCCCCCCCCCCCCSc1nc(NCCCN2CCOCC2)nc(SCCCCCCCCC)n1 [Compound S9S16D8]	7.7	6.2		11.6				11.6	23.2	11.2
CCCCCCCCCCCSc1nc(NCCCCCCC)nc(NCCCN2CCOCC2)n1 [Compound S11N7D8]	3.2	1.7		6.7				6.7		
CCCCCCCCCCCSc1nc(NCCCN2CCOCC2)nc(SCCCCCCC)n1 [Compound S7S11D8]	1.5	12.9		5.6				5.6		
CCCCCCCCCCCCCNc1nc(NCC2CCN(C)CC2)nc(SCCCCCCCC)n1 [Compound S8N13D10]	23.0	41.7		9.5				9.5		
CCCCCCCCCCCCCNc1nc(NCCN2CCCC2)nc(SCCCCCCCC)n1 [Compound S8N13D3]	18.1	19.9		15.7				15.7		
CCCCCCCCCCCCCNc1nc(NCCCN2CCOCC2)nc(SCCCCCCCC)n1 [Compound S8N13D8]	0.4	0.9		6.6				6.6		
